Assay: xn = mol fraction of the nth substance listed
Details: 298.15 K, 101 kPa, Liquid

CC(C)CC(C)(C)C [2,2,4-trimethylpentane] + CCCO
Details	mass density [kg/m3]
x2 = 0.0531	690.2
x2 = 0.098	692.4
x2 = 0.1986	698.3
x2 = 0.2981	705.1
x2 = 0.3987	713.1
x2 = 0.4987	722.3
x2 = 0.5987	732.9
x2 = 0.6994	745.8
x2 = 0.8007	761
x2 = 0.9	779.2
x2 = 0.9499	789.6

C=COCCC [propyl vinyl ether] + CC(C)CC(C)(C)C
Details	mass density [kg/m3]
x1 = 0.0468	690
x1 = 0.1011	692.6
x1 = 0.1999	697.5
x1 = 0.2997	703
x1 = 0.399	709
x1 = 0.5009	715.9
x1 = 0.6008	723.4
x1 = 0.7005	731.6
x1 = 0.7997	740.8
x1 = 0.8991	751.2
x1 = 0.9507	757.1

C=COCCC [propyl vinyl ether] + CCCO
Details	mass density [kg/m3]
x1 = 0.051	798.7
x1 = 0.1008	796.3
x1 = 0.2001	791.7
x1 = 0.2995	787.3
x1 = 0.4016	782.9
x1 = 0.4983	779.1
x1 = 0.5999	775.3
x1 = 0.7013	771.8
x1 = 0.7977	768.7
x1 = 0.8977	765.7
x1 = 0.9507	764.3

Reference: the NIST ThermoML archive (doi:10.1016/j.fluid.2007.07.002)
